Assay results: PubChem BioAssay (NCI)
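These data come from cells grown in 96-well plates and exposed to compound for 48 hours at five concentrations. GI50: concentration for 50% inhibition of growth. Definition used: TGI = concentration required for complete inhibition of growth.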

Assays:
Assay in all cases: growth of human tumour cells (NCI), 48 h
SK-MEL-28 melanoma = test system: SK-MEL-28 melanoma
MOLT-4 leukemia = test system: MOLT-4 leukemia
LOX IMVI melanoma = test system: LOX IMVI melanoma
A549 NSCLC = test system: A549 NSCLC
HCT-116 colon = test system: HCT-116 colon
MALME-3M melanoma = test system: MALME-3M melanoma
HT29 colon = test system: HT29 colon
BT-549 breast = test system: BT-549 breast
DU-145 prostate = test system: DU-145 prostate
A498 renal = test system: A498 renal

Compound | TGI (SK-MEL-28 melanoma) [µM] | TGI (MOLT-4 leukemia) [µM] | TGI (LOX IMVI melanoma) [µM] | TGI (A549 NSCLC) [µM] | TGI (HCT-116 colon) [µM] | TGI (MALME-3M melanoma) [µM] | TGI (HT29 colon) [µM] | TGI (BT-549 breast) [µM] | TGI (DU-145 prostate) [µM] | TGI (A498 renal) [µM] | GI50 (SK-MEL-28 melanoma) [µM] | GI50 (MOLT-4 leukemia) [µM] | GI50 (LOX IMVI melanoma) [µM] | GI50 (A549 NSCLC) [µM] | GI50 (HCT-116 colon) [µM] | GI50 (MALME-3M melanoma) [µM] | GI50 (DU-145 prostate) [µM] | GI50 (A498 renal) [µM]
CN(C(=O)c1ccco1)C(=S)N1CCN(c2ccccc2)CC1 | > 100 | > 100 | > 100 | > 100 | > 100 | > 100 | > 100 | – | – | – | – | – | – | – | – | – | – | –
Cc1c(NC(=O)CSC(=S)N2CCN(Cc3ccccc3)CC2)c(=O)n(-c2ccccc2)n1C | > 100 | > 100 | > 100 | > 100 | > 100 | > 100 | > 100 | > 100 | > 100 | – | – | – | – | – | – | – | – | –
Nc1ncnc2c1nnn2C1CCC(CP(=O)(O)O)C1 (stereo not given) | > 100 | > 100 | > 100 | > 100 | > 100 | > 100 | > 100 | – | > 100 | – | – | – | – | – | – | – | – | –
O=C1/C(=N\S(=O)(=O)c2ccccc2)C([n+]2ccc(Cc3ccccc3)cc2)=C([O-])c2ccccc21 | 2.14 | 4.49 | 1.83 | 3.74 | 2.46 | 1.73 | 1.49 | 2.72 | 2.89 | – | – | – | – | – | – | – | – | –
CN(C)c1nc2oc(-c3ccccc3)c(-c3ccccc3)c2c2nnnn12 | > 100 | > 100 | > 100 | > 100 | > 100 | – | > 100 | – | > 100 | > 100 | – | – | – | – | – | – | – | –
O=c1c2cc(I)ccc2nc(-c2cccs2)n1-c1ccc(O)cc1 | 34 | 78.9 | 28.5 | 27.4 | 27.4 | 20.6 | 27.1 | 27.9 | 19.7 | – | – | – | – | – | – | – | – | –
COc1ccc(C(=O)/C=C/c2c(Cl)c3c(c(OC)c2Cl)OCC(=O)N3)cc1 | 5.22 | 9.75 | 2.88 | > 100 | 2.87 | 4.99 | – | – | > 100 | 37.2 | 2.18 | 2.71 | 1.36 | 3.61 | 1.43 | 2.28 | 3.17 | 3.07
CC1(C)CC(C)(C)C1=NNC(N)=O | > 100 | > 100 | > 100 | > 100 | > 100 | > 100 | > 100 | – | > 100 | > 100 | – | – | – | – | – | – | – | –
CC(=O)Nc1ccc(OC2=CCN(C)CC2)cc1 | > 100 | > 100 | > 100 | > 100 | > 100 | > 100 | > 100 | > 100 | > 100 | – | – | – | – | – | – | – | – | –
c1ccc2c(c1)CCc1c-2n(CCN2CCOCC2)c2ccccc12 | > 100 | > 100 | > 100 | > 100 | > 100 | 32.2 | 25.9 | > 100 | > 100 | – | – | – | – | – | – | – | – | –
O=C(OCCN=c1c2ccccc2ccc2ccccc12)c1ccc([N+](=O)[O-])cc1 | > 100 | > 100 | > 100 | > 100 | > 100 | > 100 | > 100 | > 100 | > 100 | – | – | – | – | – | – | – | – | –
O=C(O)c1ccn(-c2cccc(-n3ccc(C(=O)O)n3)n2)n1 | > 100 | > 100 | > 100 | > 100 | > 100 | > 100 | > 100 | > 100 | > 100 | – | – | – | – | – | – | – | – | –
CCOC(=O)c1cnc2oc3ccc(O)cc3c2c1-c1ccccc1 | > 100 | > 100 | > 100 | > 100 | > 100 | > 100 | > 100 | – | > 100 | > 100 | – | – | – | – | – | – | – | –
Oc1c([Si](c2ccccc2)(c2ccccc2)c2ccccc2)cc2ccccc2c1-c1c(O)c([Si](c2ccccc2)(c2ccccc2)c2ccccc2)cc2ccccc12 | > 100 | > 100 | > 100 | > 100 | – | > 100 | > 100 | – | > 100 | > 100 | – | – | – | – | – | – | – | –
COc1cc(/C=C2/C[C@H]3[C@@H]4CC=C5C[C@@H](OC(C)=O)CC[C@]5(C)[C@H]4CC[C@]3(C)NC2=O)cc(OC)c1OC | 70.9 | 91.4 | > 100 | 59.3 | > 100 | 60.3 | > 100 | 55 | 55.3 | – | – | – | – | – | – | – | – | –
CC1(c2ccc[n+](Cc3ccccc3)c2)OCCO1 | – | > 100 | > 100 | > 100 | > 100 | > 100 | > 100 | – | – | > 100 | – | – | – | – | – | – | – | –
O=C1C(=O)c2ccccc2C(O)=C1CCCc1ccc(Oc2ccccc2)cc1 | > 100 | > 100 | 15.3 | – | – | 75 | 75.2 | – | – | 90.5 | – | – | – | – | – | – | – | –
